Data as given in article PMC7235871, “Excretion of the Polymyxin Derivative NAB739 in Murine Urine” (Antibiotics, 2020).
Positions of bridges follow the written chain, without caps; N, C: chain ends. Non-standard residues stand in square brackets, D forms with d. Residues, ends and D or L forms follow the SMILES beside them. *: point of attachment. Octanoyl = CCCCCCCC(=O)*; Dab = NCC[C@H](N)C(=O)O

Experiments:
[1] = test system: E. coli; conditions: murine E. coli pyelonephritis, cited from earlier work; for Half maximal effective dose (ED50) in kidneys: bacterial burden in kidneys
[2] = cynomolgus monkey, in vivo; cited from earlier work
[3] = Plasma concentrations (PK) in NMRI mice after SC administration; type: in vivo
Experimental: (§1) NMRI female mice (10–12 weeks old, 29–32 g, n = 64) were obtained from ENVIGO (The Netherlands) and housed prior to treatment under standard conditions (acclimatization period of 1 week, 21–23 °C, 12-h light/dark cycle, relative humidity 45%–65%) with unlimited access to food (R70 diet from Lantmännen) and water. The experimental procedures were performed in accordance with the guidelines of the European Community and local laws and policies (Directive 2010/63/EU), and all of the procedures were approved by Food and Veterinary Service, Riga, Latvia. Studies involving animals are reported in accordance with the ARRIVE guidelines. Animals were weighed on the day of the treatment (before treatment) to calculate the required amount of compound for the corresponding dose. For PK and excretion studies the mice were dosed subcutaneously (SC) via a bolus injection (injection volume 10 mL/kg). Four consecutive doses were administrated twice a day at 9:00 AM and 15:00 PM over the course of two days.
Blood samples were collected in tubes containing heparin. Blood was sampled from tail vein 15, 30, and 45 min after the first and last administrations of the compounds. Tubes were centrifuged at +4 °C 10,000× g for 3 min. Plasma samples were collected and stored at −20 °C until analysis.
(§2) Plasma and urine sample analyses were performed using the quantitative UPLC/MS/MS method. Calibration standards and quality control samples for plasma analysis were prepared by spiking blank mouse plasma (CD-1, anticoagulant Na Heparin, Innovative Research, USA) with a stock solution of analyte to achieve a nominal concentration ranging from 0.01 to 50 μg/mL for NAB739 and PMB. Calibration standards and quality control samples for urine analysis were prepared by spiking blank mouse urine (mouse CD-1 urine, Sera Laboratories International Ltd., UK) with a stock solution of analytes to achieve a nominal concentration from 0.04 to 30 μg/mL for NAB739 and PMB.
(§3) A sample volume of 20 μL (calibration standards, quality controls or analytical samples in plasma or urine) was transferred into the plastic tube and mixed with 100 μL of 1% formic acid solution in acetonitrile/methanol (3:1, v/v) mixture to precipitate proteins. The tubes were vortex- mixed and centrifuged at 10,000 rpm for 10 min. Then, 100 μL of supernatant was diluted with 400 μL of water and subjected to UPLC/MS analysis as follows:
(§4) UPLC system Acquity H-class (Waters) connected with triple quadrupole mass spectrometer Xevo TQ-S (Waters). UPLC conditions: Column—Acquity BEH C18 (2.1 × 50 mm, 1.7 µm); Mobile phase—A: 0.1% Formic acid aqueous solution, B: Acetonitrile; Gradient: Initial—90%A, 2.5 min—5% A, 4.0 min—5% A, 4.5 min—90% A, 6 min—90% A; Flow—0.3 mL/min; Column temperature—40 °C; Injection volume—1 μL (NAB739) or 5 μL (PMB). MS conditions: Ionization—ESI positive mode; Capillary voltage—1.0 kV; ESI source temperature—120 °C; Desolvation gas (N2) flow—800 L/h; Desolvation temperature—600 °C.

[4] = cynomolgus monkey, in vivo; cited from earlier work; remark: listed apart in the source
[5] = Urinary elimination in NMRI mice after SC administration (pooled 0–3 h urine); type: in vivo
Experimental: as §1
For PK study, before the administration of the compound, mice voiding was stimulated. Then compound was administrated SC. Mice were put in separate cages with LabSand (USA) and urine was collected during the next 3 h. At the end of each 1-h period voiding was stimulated by gentle massage of the belly. Urine samples from each mouse were pooled in one tube. Urine volume was determined by weighing of the pooled urine sample.
as §2, §3, §4

[6] = Observation of adverse effects during administration in mice; type: in vivo, NMRI mice; conditions: SC, doses 0.25, 0.5, 1, 2 and 4 mg/kg, single and four-times-repeated
Experimental: as §1

[7] = parameters: method as in PMID 18840079; conditions: patients; cited from earlier work

Row | Compound | Half maximal effective dose (ED50) in kidneys [1] [mg/kg] | Fold lower dose than PMB reducing bacterial burden in kidney, urine and bladder [1] | Excretion in urine [2] | Plasma concentration ([3]; female, NMRI, mouse, in vivo, sc, 0.5 mg/kg) | Linearity of Cmax and dose–response relationship, correlation coefficient ([3]; mouse, in vivo, sc) | Nephrotoxicity compared to PMB [4] | Urinary concentration ([5]; female, NMRI, mouse, in vivo, sc, 4 mg/kg) | Relative elimination by urine higher after the last dose than after the first dose, average ([5]; mouse, in vivo) [%] | Urine concentration higher after the last dose compared to the first dose, average ([5]; mouse, in vivo) [%] | Detection in urine samples ([5]; mouse, in vivo, sc, 4 mg/kg) | Plasma concentrations after the first versus the last administration ([3]; SC, four doses) | Time at which Cmax was observed after administration ([3]; plasma, SC, all doses 0.25–4 mg/kg) [min] | Linearity of Cmax and dose–response relationship, correlation coefficient ([3]; plasma, first SC administration, doses 0.25–4 mg/kg) | Adverse effects during administration [6] | Part of dose excreted in urine [7] | Detection in urine samples ([5]; SC dose of 4 mg/kg, pooled 0–3 h urine) | Detection in urine ([5]; after the fourth SC dose at 4 mg/kg, detection limit 0.6 µg/mL)
1 | CCCCCCCC(=O)N[C@H](C(=O)N[C@H](CO)C(=O)N[C@H]1CCNC(=O)[C@H]([C@@H](C)O)NC(=O)[C@H](CCN)NC(=O)[C@H](CCN)NC(=O)[C@H](CC(C)C)NC(=O)[C@@H](Cc2ccccc2)NC(=O)[C@H](CCN)NC1=O)[C@@H](C)O [NAB739] (Octanoyl-T[dS][Dab][Dab][dF]L[Dab][Dab]T; lactam 3-C; N-terminus assumed) | 0.24 | approximately 10 fold | excreted in the cynomolgus urine at a very significant extent | exceeded 1 µg/mL | 0.9987 | less nephrotoxic | above 35 µg/mL | 26 | 27 | found in all pooled (0–3 h) urine samples | – | – | – | – | – | – | –
2 | polymyxin B [PMB, reference compound] | 2.1 | – | – | – | – | – | – | – | – | – | similar | 30 | 0.975 | no adverse effects were observed | less than 1% | not detected | not found
